Laboratory results as given in paper PMC11156899, “High-throughput screening unveils nitazoxanide as a potent PRRSV inhibitor by targeting NMRAL1” (Nature Communications, 2024).

Tests used:
[1] = pig, in vivo, po
Method: Blood samples were collected from the anterior vena cava for complete blood count using a PE-6800VET analyzer (Prokan) and biochemical analysis using a VetTest Plasma Chemistry Analyzer (IDEXX). Reference ranges were obtained from Iowa State University College of Veterinary Medicine (https://vetmed.iastate.edu/vpath/services/diagnostic-services/clinical-pathology/testing-and-fees/reference-intervals). IHC were performed as previously described, involving 24-h incubation with SR30 antibody (1:400) and subsequent treatment with HRP-labeled secondary antibody.
Supplementary Fig. 6: Complete Blood Counts and Biochemical Analysis.
Six animals from the same enclosure were divided into three groups (n = 2) and fed different doses of NTZ twice daily for three
consecutive days, with a 12-hour interval. Parameters measured included White Blood Cell (WBC) counts, Lymphocyte (LYM)
percentages, Monocyte (MONO) counts, Neutrophil (NEU) counts, Red Blood Cell (RBC) counts, Hemoglobin (HGB)
concentration, Mean Corpuscular Hemoglobin (MCH), Mean Corpuscular Hemoglobin Concentration (MCHC), Platelet (PLT)
counts, Albumin (ALB) concentration, Total Protein (TP) concentration, Glucose (GLU) levels, Alkaline Phosphatase (ALP)
levels, Total Bilirubin (TBIL) levels, and Blood Urea Nitrogen (BUN) concentration. The grey areas in each panel represent the
reference ranges for these indices.

PRRSV GSWW-18 strain = assay: In vivo antiviral effect in swine infected with GSWW-18 strain; parameters: species or system pig; conditions: for PRRSV dynamics in blood within 24 h: 48 h post infection
Nsp1α = assay: Differential scanning fluorimetry, purified Nsp1α; assay type: binding, PRRSV GSWW-18 strain; conditions: DSF
Method: For DSF, 20 μM purified NSP1α and NSP12 protein from the GSWW-18 strain, as well as NMRAL1 protein (Accession: A0A0D9R9W0) was thoroughly mixed with 20 μM SYPRO Orange (S6650, Thermo) in a buffer containing 10 mM HEPES and 200 mM NaCl at pH 7.20. An equal volume of 100 μM NTZ, dissolved in the same buffer, was added and the mixture was filtered through a 0.22 μm filter. For controls, an equivalent volume of DMSO was used. […] DSF experiments were monitored using the QuantStudio™ 5 Real-Time PCR System (Thermo). Data were analyzed using DSFworld[42].
Supplementary Fig. 10: The Affinity of Nsp1α and Nsp12 with TIZ is Lower Than That of NMRAL1.
(a) The KD value of NMRAL1 obtained through the Affinity fit model.
(b) The KD value of Nsp1α determined using the Kinetics fit model.
(c) The KD value of Nsp1α obtained through the Affinity fit model.

NMRAL1 = NMRAL1 (Chlorocebus sabaeus, UniProt A0A0D9R9W0); assay: NMRAL1 dimerization (western blot, in cells and purified protein); assay type: biochemical; conditions: in cells and with purified NMRAL1 protein
From the text: In these proteins, we separately purified the proteins of NSP1α, NSP12, and NMRAL1. […] We speculate that NMRAL1 may be the primary target of NTZ action. […] Previous studies have shown NMRAL1 inhibits retinoic acid-inducible gene I (RIG-I) mediated antiviral responses. NTZ has been reported to activate the RIG-I pathway and induce an increase in IFN-β[25], which our findings corroborate (Fig. 6e–j). […] Differential Scanning Fluorimetry (DSF) confirmed NTZ binding to NMRAL1 (Fig. 6n). […] Molecular dynamics (MD) simulations were conducted for a more accurate understanding of TIZ’s role within the NMRAL1 dimer. Fluctuations or reductions in root-mean-square deviation (RMSD), Rg, and hydrogen bond count data after 80 ns indicated significant changes in the NMRAL1 system (Supplementary Fig. 12 a, b, d). […] TIZ primarily interacted with A chain’s LYS41, LYS42, LYS45, and B chain’s LYS92, LYS89, LYS95, GLN93, LEU96, LYS118, and ARG103, with B chain’s LYS92 and LYS89 and A chain’s LYS41 being the hotspots with binding energies greater than −1 kcal/mol (Supplementary Fig. 13). […]
For Western blot analysis, protein samples were heated at 95 °C for 8 min and then cooled to room temperature. […] The protein signals were detected using a chemiluminescent substrate (34577, Thermo) and visualized using the Gel Doc XR+ molecular imager (Bio-Rad).

[2] = treatment group, only 25 mg/kg, P < 0.0001

Sequence of NMRAL1 (A0A0D9R9W0 entry or part of it): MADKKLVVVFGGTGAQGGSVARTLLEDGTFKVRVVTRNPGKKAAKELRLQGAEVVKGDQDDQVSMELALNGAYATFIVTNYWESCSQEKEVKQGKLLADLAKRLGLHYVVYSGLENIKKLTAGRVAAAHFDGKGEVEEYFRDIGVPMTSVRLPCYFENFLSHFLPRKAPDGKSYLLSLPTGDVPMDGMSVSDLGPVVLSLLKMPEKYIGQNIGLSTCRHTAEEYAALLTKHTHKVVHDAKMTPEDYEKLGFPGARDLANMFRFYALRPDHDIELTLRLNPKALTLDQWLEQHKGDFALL

## CC(=O)Oc1ccccc1C(=O)Nc1ncc([N+](=O)[O-])s1 [Nitazoxanide]
[1]
  adverse reactions (hematology, biochemical indices, clinical activity): No adverse reactions
PRRSV GSWW-18 strain; 5 mg/kg oral at 0 h and 12 h
  PRRSV dynamics in blood within 24 h: viral loads decreased from 2 h to 8 h post administration
PRRSV GSWW-18 strain; 10 mg/kg oral at 0 h and 12 h
  PRRSV dynamics in blood within 24 h: more pronounced inhibition
PRRSV GSWW-18 strain; 25 mg/kg oral
  body temperature and weight: alleviated the rise in body temperature and weight loss
PRRSV GSWW-18 strain; 25 mg/kg oral, prophylactic and therapeutic groups, vs MOCK
  lung PRRSV-positive cells (IHC): fewer lung PRRSV-positive cells
PRRSV GSWW-18 strain; 25 mg/kg, treatment and prophylactic groups
  clinical symptoms by day 7: no apparent clinical symptoms
PRRSV GSWW-18 strain; a specific dose of NTZ, PO BID 3 days
  interstitial pneumonia with lobar consolidation: significantly mitigated
PRRSV GSWW-18 strain; pig, in vivo
  fatalities within 14 days: no fatalities
PRRSV GSWW-18 strain; prophylactic and treatment groups, P < 0.0332
  PRRSV replication in ManLNs, lungs and tonsils: significantly reduced
PRRSV GSWW-18 strain; prophylactic group, 5 mg/kg, P = 0.0033
  PRRSV viral load in blood: significantly reduced
PRRSV GSWW-18 strain; prophylactic group, 10 mg/kg and 25 mg/kg, P < 0.0001
  viral copy numbers in BALF: significant effects
PRRSV GSWW-18 strain; prophylactic group, 10 mg/kg, P = 0.0012
  oronasal shedding: significantly lowered
PRRSV GSWW-18 strain; prophylactic group, even at 25 mg/kg
  anal shedding: did not reduce
PRRSV GSWW-18 strain; [2]
  viral copy numbers in BALF: achieved statistical significance
  virus in ILNs: significantly suppressed
Nsp1α
  decrease in the Tm value: 3.75 °C
NMRAL1
  NMRAL1 dimer formation: increased NMRAL1 dimer formation
